From PubChem BioAssay (NCI)
Where “and” joins values, the source holds several entries; their conditions need not be identical. Equal entries are not always repeated.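 Protocol summary: plate cells (96-well), add compound at 5 concentrations, incubate 48 h, interpolate endpoints linearly. GI50 marks 50% less growth. The concentration for full growth arrest is given as TGI.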

Legend:
Test in all cases: NCI-60 cell line screen, 48 h
SK-MEL-2 melanoma = test system: SK-MEL-2 melanoma
T-47D breast = test system: T-47D breast
HT29 colon = test system: HT29 colon
ACHN renal = test system: ACHN renal
OVCAR-5 ovarian = test system: OVCAR-5 ovarian
RXF 393 renal = test system: RXF 393 renal
MALME-3M melanoma = test system: MALME-3M melanoma
TK-10 renal = test system: TK-10 renal
UACC-257 melanoma = test system: UACC-257 melanoma
M14 melanoma = test system: M14 melanoma

SMILES	GI50 (SK-MEL-2 melanoma)	TGI (SK-MEL-2 melanoma)	GI50 (T-47D breast)	TGI (T-47D breast)	GI50 (HT29 colon)	TGI (HT29 colon)	GI50 (ACHN renal)	TGI (ACHN renal)	GI50 (OVCAR-5 ovarian)	TGI (OVCAR-5 ovarian)	GI50 (RXF 393 renal)	TGI (RXF 393 renal)	GI50 (MALME-3M melanoma)	TGI (MALME-3M melanoma)	GI50 (TK-10 renal)	TGI (TK-10 renal)	GI50 (UACC-257 melanoma)	TGI (UACC-257 melanoma)	GI50 (M14 melanoma)	TGI (M14 melanoma)
O=C1NC(=O)[C@@H](c2cn3c4c(cccc24)CCC3)[C@@H]1c1c[nH]c2ccccc12	370 nM and 570 nM	> 10000 nM and 20800 nM	456 nM and 625 nM	> 10000 nM and 32400 nM	312 nM and 321 nM	> 4400 nM and 1570 nM	661 nM and 829 nM	> 10000 nM and 32900 nM	652 nM and 1100 nM	> 10000 nM and 22200 nM	294 nM and 332 nM	> 10000 nM and 2910 nM	987 nM and 434 nM	> 10000 nM and 26600 nM	570 nM and 4700 nM	> 10000 nM and 35500 nM	712 nM and 2510 nM	> 10000 nM and 29800 nM	310 nM and 372 nM	> 10000 nM and 10800 nM
COc1ccc(/C=C(\C#N)n2nnc3cc(Cl)ccc32)cc1	483 nM	> 47600 nM	407 nM	–	334 nM	> 100000 nM	593 nM	> 43500 nM	1400 nM	6440 nM	787 nM	2620 nM	1220 nM	11300 nM	1650 nM	11500 nM	2400 nM	> 100000 nM	373 nM	6630 nM
CCNCCNc1cc(-c2ccc(Cl)cc2)c(C#N)c2nc3ccccc3n12	2060 nM	3890 nM	1740 nM	3860 nM	1790 nM	3470 nM	1480 nM	2890 nM	1910 nM	3670 nM	1440 nM	2780 nM	1690 nM	3380 nM	2040 nM	3620 nM	2180 nM	3920 nM	1880 nM	3380 nM
COc1ccc(-n2c(-c3ccc(NC(=O)CCCl)cc3)nnc2-c2cc(OC)c(OC)c(OC)c2)cc1	3010 nM	7160 nM	3010 nM	14000 nM	3030 nM	11200 nM	2210 nM	8400 nM	6850 nM	> 14300 nM	2440 nM	5020 nM	4000 nM	> 14300 nM	4970 nM	11900 nM	6230 nM	> 14300 nM	4270 nM	> 14300 nM
CC(=O)C(C(=N)C#N)C(=O)Nc1ccccc1 (centres undefined)	–	> 100000 nM	–	> 100000 nM	–	> 100000 nM	–	> 100000 nM	–	> 100000 nM	–	> 100000 nM	–	> 100000 nM	–	> 100000 nM	–	> 100000 nM	–	> 100000 nM
C[C@@H](Oc1cc(-c2cnn(C3CCNCC3)c2)cnc1N)c1c(Cl)ccc(F)c1Cl	1820 nM	4540 nM	1710 nM	7900 nM	437 nM	2310 nM	2970 nM	> 10000 nM	1140 nM	> 10000 nM	1360 nM	3110 nM	1220 nM	2610 nM	2760 nM	> 10000 nM	1520 nM	3150 nM	1080 nM	2650 nM
